# Experimental data from patent publication US8927500B2, “Peptidomimetic macrocycles” (Aileron Therapeutics, Inc., priority 2012, dated 2015).
# Like-named read-outs stand apart in the source and are kept apart here. Where a SMILES comes first, the peptide text is derived from it. Bridges are numbered along the chain shown (N, C = ends). [ ]: non-standard residue; d: D form. dPhe(4-CF3) = N[C@H](Cc1ccc(C(F)(F)F)cc1)C(=O)O; R8 = C=CCCCCCC[C@@](C)(N)C(=O)O; S8 = C=CCCCCCC[C@](C)(N)C(=O)O; Cba = N[C@@H](CC1CCC1)C(=O)O; Chg = N[C@H](C(=O)O)C1CCCCC1; R5 = C=CCCC[C@@](C)(N)C(=O)O; S5 = C=CCCC[C@](C)(N)C(=O)O; Nle = CCCC[C@H](N)C(=O)O; Sar = CNCC(=O)O
# How the values were obtained:
# [1] = biological target: T1, MDMX (Homo sapiens, UniProt O15151); experiment: Competitive fluorescence polarization assay for MDMX; type: binding; settings: competitive FP assay; for IC50: read-out: IC50 (MDMX); for Ki: read-out: Ki (MDMX)
# T1 sequence (O15151 1-125): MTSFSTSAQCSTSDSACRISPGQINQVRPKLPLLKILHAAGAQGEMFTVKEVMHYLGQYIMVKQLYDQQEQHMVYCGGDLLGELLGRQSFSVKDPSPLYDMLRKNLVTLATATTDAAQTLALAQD
# [2] = biological target: MDM2 (Homo sapiens, UniProt Q00987); experiment: Competitive fluorescence polarization assay for MDM2; type: binding; settings: for Ki: read-out: Ki (MDM2)
# Chain of MDM2 (Q00987 1-125): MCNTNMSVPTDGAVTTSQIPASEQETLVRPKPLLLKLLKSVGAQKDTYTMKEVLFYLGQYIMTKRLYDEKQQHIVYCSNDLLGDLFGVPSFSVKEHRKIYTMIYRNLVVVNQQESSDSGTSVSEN
# [3] = competitive FP assay, MDM2, read-out: IC50 (MDM2)
IC50 [1],Ki [1],"IC50 [2, 3]","Ki ([2]; competitive FP assay, MDM2)",Structure (SMILES),IC50 ([2]; IC50 (MDM2))
10 to 100 nM,10 to 100 nM,10 to 100 nM,< 10 nM,CCCC[C@H](NC(=O)[C@H](C)NC(=O)[C@H](C)NC(=O)[C@]1(C)CCCC=CCCCCCC[C@@](C)(NC(=O)[C@H](Cc2ccccc2)NC(=O)[C@@H](NC(=O)[C@H](CC(C)C)NC(C)=O)[C@@H](C)O)C(=O)N[C@@H](CCC(=O)O)C(=O)N[C@@H](Cc2ccc(O)cc2)C(=O)N[C@@H](Cc2c[nH]c3ccccc23)C(=O)N[C@@H](C)C(=O)N[C@@H](CCC(N)=O)C(=O)N[C@@H](CC2CCC2)C(=O)N1)C(=O)N[C@@H](C)C(=O)N[C@@H](C)C(N)=O [compound 380] (Ac-LTF[R8]EYWAQ[Cba][S5]AA[Nle]AA-NH2; staple 4-11),–
< 10 nM,< 10 nM,< 10 nM,< 10 nM,"CC[C@H](C)[C@H](NC(=O)[C@H](C)NC(=O)[C@H](C)NC(=O)[C@]1(C)CCCC=CCCCCCC[C@@](C)(NC(=O)[C@H](Cc2ccccc2)NC(=O)[C@@H](NC(=O)[C@H](CC(C)C)NC(=O)CN(C)C)[C@@H](C)O)C(=O)N[C@@H](CCC(=O)O)C(=O)N[C@@H](Cc2ccc(C(=O)O)cc2)C(=O)N[C@@H](Cc2c[nH]c3ccccc23)C(=O)N[C@@H](C)C(=O)N[C@@H](CCC(N)=O)C(=O)N[C@@H](CC2CCC2)C(=O)N1)C(=O)N[C@H](C)C(N)=O (single isomer, unassigned) [compound 441]",–
100 to 1000 nM,10 to 100 nM,< 10 nM,< 10 nM,CC(=O)N[C@@H](CC(C)C)C(=O)N[C@H](C(=O)N[C@@H](Cc1ccccc1)C(=O)N[C@]1(C)CCCCCCC=CCCC[C@@](C)(C(=O)N[C@@H](CO)C(=O)N[C@@H](CC(N)=O)C(=O)N[C@H](C)C(N)=O)NC(=O)[C@H](CC(C)C)NC(=O)[C@H](CCC(N)=O)NC(=O)[C@H](C)NC(=O)[C@H](Cc2c[nH]c3ccccc23)NC(=O)[C@H](Cc2ccc(O)cc2)NC(=O)[C@H](C(C)C)NC1=O)[C@@H](C)O [compound 135] (Ac-LTF[R8]VYWAQL[S5]SN[dA]-NH2; staple 4-11),–
10 to 100 nM,10 to 100 nM,10 to 100 nM,< 10 nM,CC(=O)N[C@@H](CC(C)C)C(=O)N[C@H](C(=O)N[C@@H](Cc1ccccc1)C(=O)N[C@]1(C)CCCCCCC=CCCC[C@@](C)(C(=O)N[C@@H](CO)C(=O)N[C@@H](C)C(=O)N[C@@H](CCCNC(=N)N)C(N)=O)NC(=O)[C@H](CC2CCC2)NC(=O)[C@H](CCC(N)=O)NC(=O)[C@H](C)NC(=O)[C@H](Cc2c[nH]c3ccccc23)NC(=O)[C@H](Cc2ccc(O)cc2)NC(=O)[C@H](CCC(=O)O)NC1=O)[C@@H](C)O [compound 366] (Ac-LTF[R8]EYWAQ[Cba][S5]SAR-NH2; staple 4-11),–
–,10 to 100 nM,–,< 10 nM,CC(=O)N[C@@H](CC(C)C)C(=O)N[C@H](C(=O)N[C@@H](Cc1ccccc1)C(=O)N[C@]1(C)CCCCCCC=CCCC[C@@](C)(C(=O)N[C@@H](C)C(=O)N[C@@H](C)C(=O)N[C@@H](C)C(=O)N[C@@H](C)C(=O)N[C@@H](C)C(=O)N[C@H](C)C(N)=O)NC(=O)[C@H](CC(C)C)NC(=O)[C@H](CC(N)=O)NC(=O)[C@H](C)NC(=O)[C@H](Cc2c[nH]c3ccccc23)NC(=O)[C@H](Cc2ccc(O)cc2)NC(=O)[C@H](CCC(=O)O)NC1=O)[C@@H](C)O [compound 611] (Ac-LTF[R8]EYWANL[S5]AAAAA[dA]-NH2; staple 4-11),–
10 to 100 nM,10 to 100 nM,10 to 100 nM,10 to 100 nM,CCCC[C@H](NC(=O)[C@H](C)NC(=O)[C@H](C)NC(=O)[C@]1(C)CCCC=CCCCCCC[C@@](C)(NC(=O)[C@H](Cc2ccccc2)NC(=O)[C@H](C)NC(=O)[C@H](C)NC(=O)[C@H](C)NC(=O)[C@H](C)NC(C)=O)C(=O)N[C@@H](CCC(=O)O)C(=O)N[C@@H](Cc2ccc(O)cc2)C(=O)N[C@@H](Cc2c[nH]c3ccccc23)C(=O)N[C@@H](C)C(=O)N[C@@H](CCC(N)=O)C(=O)N[C@@H](CC(C)C)C(=O)N1)C(=O)N[C@@H](C)C(N)=O [compound 373] (Ac-AAAAF[R8]EYWAQL[S5]AA[Nle]A-NH2; staple 6-13),–
–,10 to 100 nM,–,< 10 nM,CC(=O)N[C@@H](CC(C)C)C(=O)N[C@H](C(=O)N[C@@H](Cc1ccccc1)C(=O)N[C@]1(C)CCCCCCC=CCCC[C@@](C)(C(=O)N[C@@H](C)C(=O)N[C@@H](C)C(=O)N[C@@H](C)C(=O)N(C)CC(=O)N[C@@H](C)C(=O)N[C@H](C)C(N)=O)NC(=O)[C@H](CC(C)C)NC(=O)[C@H](CCC(N)=O)NC(=O)[C@H](C)NC(=O)[C@H](Cc2c[nH]c3ccccc23)NC(=O)[C@H](Cc2ccc(O)cc2)NC(=O)[C@H](CCC(=O)O)NC1=O)[C@@H](C)O [compound 576] (Ac-LTF[R8]EYWAQL[S5]AAA[Sar]A[dA]-NH2; staple 4-11),–
10 to 100 nM,10 to 100 nM,< 10 nM,< 10 nM,CCCC[C@H](NC(=O)[C@H](Cc1c[nH]c2ccccc12)NC(=O)[C@H](C)NC(=O)[C@]1(C)CCCC=CCCCCCC[C@@](C)(NC(=O)[C@H](Cc2ccccc2)NC(=O)[C@@H](NC(=O)[C@H](CCC(=O)O)NC(C)=O)[C@@H](C)O)C(=O)N[C@@H](C)C(=O)N[C@@H](Cc2ccc(O)cc2)C(=O)N[C@@H](Cc2c[nH]c3ccccc23)C(=O)N[C@@H](C)C(=O)N[C@@H](CCC(N)=O)C(=O)N[C@@H](CC2CCC2)C(=O)N1)C(=O)N[C@H](C)C(N)=O [compound 270] (Ac-ETF[R8]AYWAQ[Cba][S5]AW[Nle][dA]-NH2; staple 4-11),–
100 to 1000 nM,10 to 100 nM,< 10 nM,< 10 nM,CC(=O)N[C@@H](CCC(=O)O)C(=O)N[C@H](C(=O)N[C@@H](Cc1ccccc1)C(=O)N[C@]1(C)CCCCCCC=CCCC[C@@](C)(C(=O)N[C@@H](CO)C(=O)N[C@@H](C)C(=O)N[C@H](C)C(N)=O)NC(=O)[C@H](CC(C)C)NC(=O)[C@H](CCC(N)=O)NC(=O)[C@H](C)NC(=O)[C@H](Cc2c[nH]c3ccccc23)NC(=O)[C@H](Cc2ccc(O)cc2)NC(=O)[C@H](C(C)C)NC1=O)[C@@H](C)O [compound 124] (Ac-ETF[R8]VYWAQL[S5]SA[dA]-NH2; staple 4-11),–
100 to 1000 nM,10 to 100 nM,100 to 1000 nM,100 to 1000 nM,CC(=O)N[C@@H](Cc1ccccc1)C(=O)N[C@]1(C)CCCCCCC=CCCC[C@@](C)(C(=O)N[C@@H](CCC(N)=O)C(=O)N[C@@H](Cc2c[nH]cn2)C(=O)N[C@H](C(=O)N[C@H](CC(C)C)C(N)=O)C2CCCCC2)NC(=O)[C@H](CC(C)C)NC(=O)[C@H](CCC(N)=O)NC(=O)[C@H](C(C)C)NC(=O)[C@H](Cc2c[nH]c3ccccc23)NC(=O)[C@H](Cc2ccc(O)cc2)NC(=O)[C@H](C)NC1=O [compound 40] (Ac-F[R8]AYWVQL[S5]QH[Chg][dL]-NH2; staple 2-9),–
10 to 100 nM,< 10 nM,10 to 100 nM,< 10 nM,CCCC[C@H](NC(=O)[C@H](C)NC(=O)[C@H](C)NC(=O)[C@]1(C)CCCC=CCCCCCC[C@@](C)(NC(=O)[C@H](Cc2ccccc2)NC(=O)[C@@H](NC(=O)[C@H](CC(C)C)NC(=O)[C@H](C)NC(=O)[C@H](C)NC(=O)[C@H](C)NC(C)=O)[C@@H](C)O)C(=O)N[C@@H](CCC(=O)O)C(=O)N[C@@H](Cc2ccc(O)cc2)C(=O)N[C@@H](Cc2c[nH]c3ccccc23)C(=O)N[C@@H](C)C(=O)N[C@@H](CCC(N)=O)C(=O)N[C@@H](CC(C)C)C(=O)N1)C(=O)N[C@@H](C)C(N)=O [compound 376] (Ac-AAALTF[R8]EYWAQL[S5]AA[Nle]A-NH2; staple 7-14),–
100 to 1000 nM,10 to 100 nM,10 to 100 nM,< 10 nM,CC[C@H](C)[C@H](NC(=O)[C@H](C)NC(=O)[C@H](C)NC(=O)[C@]1(C)CCCC=CCCCCCC[C@@](C)(NC(=O)[C@H](Cc2ccccc2)NC(=O)[C@@H](NC(=O)[C@H](CC(C)C)NC(C)=O)[C@@H](C)O)C(=O)N[C@@H](C)C(=O)N[C@@H](CCC(=O)O)C(=O)N[C@@H](Cc2c[nH]c3ccccc23)C(=O)N[C@@H](C)C(=O)N[C@@H](CCC(N)=O)C(=O)N[C@@H](CC(C)C)C(=O)N1)C(=O)N[C@H](C)C(N)=O [compound 180] (Ac-LTF[R8]AEWAQL[S5]AAI[dA]-NH2; staple 4-11),–
> 1000 nM,> 1000 nM,100 to 1000 nM,100 to 1000 nM,"CCCC[C@H](NC(=O)[C@H](C)NC(=O)[C@H](C)NC(=O)[C@]1(C)CCCC=CCCCCCC[C@@](C)(NC(=O)[C@H](Cc2ccccc2)NC(=O)[C@@H](NC(=O)[C@H](CC(C)C)NC(C)=O)[C@@H](C)O)C(=O)N[C@@H](C)C(=O)N[C@@H](Cc2ccc(O)cc2)C(=O)N(C)[C@@H](Cc2c[nH]c3ccccc23)C(=O)N[C@@H](C)C(=O)N[C@@H](CCC(N)=O)C(=O)N[C@@H](CC(C)C)C(=O)N1)C(=O)N[C@@H](C)C(N)=O (single isomer, unassigned) [compound 386]",–
100 to 1000 nM,10 to 100 nM,100 to 1000 nM,10 to 100 nM,CC(=O)N[C@@H](Cc1ccccc1)C(=O)N[C@]1(C)CCCCCCC=CCCC[C@@](C)(C(=O)N[C@@H](CCCNC(=N)N)C(=O)N[C@@H](CCCNC(=N)N)C(=O)N[C@@H](CC(=O)O)C(=O)N[C@@H](C)C(N)=O)NC(=O)[C@H](CC(C)C)NC(=O)[C@H](CCC(N)=O)NC(=O)[C@H](Cc2c[nH]cn2)NC(=O)[C@H](Cc2c[nH]c3ccccc23)NC(=O)[C@H](Cc2c[nH]cn2)NC(=O)[C@H](Cc2c[nH]cn2)NC1=O [compound 54] (Ac-F[R8]HHWHQL[S5]RRDA-NH2; staple 2-9),–

Structure (SMILES),IC50 [1],Ki [1],"IC50 [2, 3]","Ki ([2]; competitive FP assay, MDM2)",IC50 ([2]; IC50 (MDM2))
CC(=O)N[C@@H](C(=O)N[C@H](C)C(=O)N[C@H](Cc1c[nH]c2ccccc12)C(=O)N[C@H](Cc1ccc(O)cc1)C(=O)N[C@@]1(C)CCCCCCC=CCCC[C@](C)(C(=O)N[C@H](C)C(N)=O)NC(=O)[C@@H](CC(C)C)NC(=O)[C@@H](CC(C)C)NC(=O)[C@@H](CCCCN)NC(=O)[C@@H](CCC(=O)O)NC(=O)[C@@H](Cc2ccc(C(F)(F)F)cc2)NC(=O)[C@@H](CC(N)=O)NC1=O)[C@H](C)O [compound 757] (Ac-[dT][dA][dW][dY][S8][dN][dPhe(4-CF3)][dE][dK][dL][dL][R5][dA]-NH2; staple 5-12),> 1000 nM,–,–,–,< 10 nM
